Values of other authors, collected in patent US20050187388A1, “Method for the preparation of aryl ethers” (priority 2004, published 2005).

Experiments:
8-OH-DPAT hypothermia = details: in vivo
serotonin reuptake = serotonin reuptake (Homo sapiens, UniProt P31645)
dopamine reuptake = dopamine reuptake (Homo sapiens, UniProt Q01959)
Sequence of dopamine reuptake (Q01959 whole entry): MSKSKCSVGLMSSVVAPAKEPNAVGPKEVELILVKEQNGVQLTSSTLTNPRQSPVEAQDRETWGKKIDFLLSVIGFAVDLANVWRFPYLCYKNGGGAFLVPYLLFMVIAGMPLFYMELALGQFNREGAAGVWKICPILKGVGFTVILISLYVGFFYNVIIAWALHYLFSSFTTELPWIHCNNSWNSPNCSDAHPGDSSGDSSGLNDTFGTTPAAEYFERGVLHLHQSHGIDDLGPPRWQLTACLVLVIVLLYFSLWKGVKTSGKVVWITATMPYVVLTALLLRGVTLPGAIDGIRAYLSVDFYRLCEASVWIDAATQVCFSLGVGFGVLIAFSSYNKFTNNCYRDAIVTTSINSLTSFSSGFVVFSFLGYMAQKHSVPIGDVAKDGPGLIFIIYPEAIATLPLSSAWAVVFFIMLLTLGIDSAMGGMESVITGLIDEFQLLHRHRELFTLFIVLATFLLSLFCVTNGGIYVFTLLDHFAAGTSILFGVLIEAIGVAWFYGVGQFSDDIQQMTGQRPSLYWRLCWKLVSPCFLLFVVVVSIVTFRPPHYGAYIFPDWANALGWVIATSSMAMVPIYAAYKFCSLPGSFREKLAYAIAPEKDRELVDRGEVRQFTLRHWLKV

Sequence of serotonin reuptake (P31645 whole entry): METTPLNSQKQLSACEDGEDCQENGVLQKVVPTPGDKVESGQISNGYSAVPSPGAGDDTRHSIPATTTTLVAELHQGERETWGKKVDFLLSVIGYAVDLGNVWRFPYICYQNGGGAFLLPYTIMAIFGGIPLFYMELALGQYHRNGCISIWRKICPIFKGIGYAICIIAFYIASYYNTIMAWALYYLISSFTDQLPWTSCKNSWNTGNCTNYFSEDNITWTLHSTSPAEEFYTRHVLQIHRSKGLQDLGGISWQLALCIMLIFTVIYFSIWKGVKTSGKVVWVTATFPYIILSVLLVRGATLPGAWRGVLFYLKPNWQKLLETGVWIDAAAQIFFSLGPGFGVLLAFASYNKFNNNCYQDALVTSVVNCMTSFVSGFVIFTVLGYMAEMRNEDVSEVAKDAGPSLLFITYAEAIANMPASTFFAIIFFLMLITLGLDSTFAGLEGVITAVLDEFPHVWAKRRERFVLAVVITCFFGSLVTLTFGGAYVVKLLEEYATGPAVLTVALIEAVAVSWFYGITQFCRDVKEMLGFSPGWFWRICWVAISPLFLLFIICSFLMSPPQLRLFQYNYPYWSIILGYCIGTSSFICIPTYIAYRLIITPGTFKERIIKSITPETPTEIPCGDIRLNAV

Which results are given for CCOc1ccccc1O[C@@H](c1ccccc1)[C@@H]1CNCCO1 (racemic) [Reboxetine, 2-[α-(2-ethoxyphenoxy)benzyl]morpholine]?
effect in the 8-OH-DPAT hypothermia test (8-OH-DPAT hypothermia): ineffective; serotonin reuptake inhibitory activity (serotonin reuptake): only marginal; dopamine reuptake inhibitory activity (dopamine reuptake): no dopamine reuptake inhibitory activity
